The values below come from publication PMC3692424, “A New Type of Na^+-Driven ATP Synthase Membrane Rotor with a Two-Carboxylate Ion-Coupling Motif” (PLoS Biology, 2013).

In assay [1] the target is T1, F. nucleatum c11 ring (isolated c-ring) (Fusobacterium nucleatum, UniProt Q8RGD7).
T1 construct: gene atpE; isolated c11 ring from hybrid ATP synthase (I. tartaricus F1-ab2) expressed in E. coli DK8; detergent-solubilized
Nature of the assay: fluorescence increase on labelling; SDS-PAGE under UV light. Format: binding. To be noted: covalent (Glu65); 100 µM NCD-4, MES pH 5.7, 1.5% n-octyl-β-D-glycoside, no Na+.

In assay [2] the target is T2, F. nucleatum F1Fo-ATP synthase (purified; c-ring site of DCCD) (Fusobacterium nucleatum, UniProt Q8RGD7).
T2 construct: gene atpE; same native holoenzyme as P1; entry split because DCCD modifies Glu65 of subunit c; with ATP synthase subunit alpha; ATP synthase subunit beta; ATP synthase gamma chain; ATP synthase subunit delta; ATP synthase epsilon chain; ATP synthase subunit a; ATP synthase subunit b
Nature of the assay: inhibition of ATP hydrolysis, ATP-regenerating assay. It counts as biochemical. To be noted: covalent (Glu65 of subunit c); 20 min preincubation at 25 °C, 50 mM MOPS, 2 mM MgCl2, pH 7.5; no added Na+.

T1 sequence (Q8RGD7 whole entry): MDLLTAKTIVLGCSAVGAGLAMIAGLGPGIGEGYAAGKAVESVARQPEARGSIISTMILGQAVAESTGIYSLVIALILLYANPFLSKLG

`CN(C)c1ccc(N=C=NC2CCCCC2)c2ccccc12` [NCD-4, N-cyclohexyl-N′-(4-(dimethylamino)-α-naphthyl)-carbodiimide]: the “fluorescence increase on labelling; SDS-PAGE under UV light” value in assay [1] is listed as “NCD-4 modifies Glu65 in the isolated c-ring”.
On to `C(=NC1CCCCC1)=NC1CCCCC1` [DCCD, N,N′-dicyclohexylcarbodiimide], for which the “inhibition of ATP hydrolysis, ATP-regenerating assay” value in assay [2] is “The ATPase activity of the enzyme was inhibited by DCCD in a concentration-dependent manner”.
